Numbers after ± are expanded uncertainties.
Test: xn = mol fraction of the nth substance listed
Settings: 101 kPa, Liquid; for speed of sound: Sing-around technique in a fixed-path interferometer; for mass density: Vibrating tube method

CCCCCCCCCCn1cc[n+](C)c1.[Cl-] [1-decyl-3-methylimidazolium chloride] + O
Settings	mass density [kg/m3]	speed of sound [m/s]
283 K, x1 = 0.000105	999.733 ± 0.1	1449.9 ± 1.2
283 K, x1 = 0.000185	999.76 ± 0.1	1451.1 ± 1.2
283 K, x1 = 0.000277	999.776 ± 0.1	1452.4 ± 1.2
283 K, x1 = 0.000377	999.82 ± 0.1	1453.9 ± 1.2
283 K, x1 = 0.000452	999.839 ± 0.1	1454.6 ± 1.2
283 K, x1 = 0.000546	999.878 ± 0.1	1455.8 ± 1.2
283 K, x1 = 0.000728	999.945 ± 0.1	1458.5 ± 1.2
283 K, x1 = 0.000836	999.997 ± 0.1	1460.3 ± 1.2
283 K, x1 = 0.001002	1000.05 ± 0.1	1462.6 ± 1.2
283 K, x1 = 0.001099	1000.05 ± 0.1	1463.7 ± 1.2
283 K, x1 = 0.00118	1000.1 ± 0.1	1464.7 ± 1.2
283 K, x1 = 0.001259	1000.11 ± 0.1	1465 ± 1.2
283 K, x1 = 0.001351	1000.13 ± 0.1	1465.9 ± 1.2
283 K, x1 = 0.001452	1000.14 ± 0.1	1466.5 ± 1.2
283 K, x1 = 0.001539	1000.14 ± 0.1	1467.1 ± 1.2
283 K, x1 = 0.001631	1000.14 ± 0.1	1467.9 ± 1.2
283 K, x1 = 0.001869	1000.13 ± 0.1	1468.9 ± 1.2
283 K, x1 = 0.001988	1000.13 ± 0.1	1469.3 ± 1.2
288 K, x1 = 0.000105	999.142 ± 0.1	1467.8 ± 1.2
288 K, x1 = 0.000185	999.164 ± 0.1	1468.9 ± 1.2
288 K, x1 = 0.000277	999.176 ± 0.1	1470.2 ± 1.2
288 K, x1 = 0.000377	999.206 ± 0.1	1471.5 ± 1.2
288 K, x1 = 0.000452	999.216 ± 0.1	1472.4 ± 1.2
288 K, x1 = 0.000546	999.247 ± 0.1	1473.5 ± 1.2
288 K, x1 = 0.000728	999.3 ± 0.1	1476 ± 1.2
288 K, x1 = 0.000836	999.347 ± 0.1	1477.5 ± 1.2
288 K, x1 = 0.001002	999.38 ± 0.1	1479.5 ± 1.2
288 K, x1 = 0.001099	999.375 ± 0.1	1480.5 ± 1.2
288 K, x1 = 0.00118	999.412 ± 0.1	1481.3 ± 1.2
288 K, x1 = 0.001259	999.417 ± 0.1	1481.7 ± 1.2
288 K, x1 = 0.001351	999.423 ± 0.1	1482.5 ± 1.2
288 K, x1 = 0.001452	999.42 ± 0.1	1483 ± 1.2
288 K, x1 = 0.001539	999.421 ± 0.1	1483.4 ± 1.2
288 K, x1 = 0.001631	999.412 ± 0.1	1483.9 ± 1.2
288 K, x1 = 0.001869	999.393 ± 0.1	1484.8 ± 1.2
288 K, x1 = 0.001988	999.38 ± 0.1	1485.2 ± 1.2
293 K, x1 = 0.000105	998.25 ± 0.1	1483.9 ± 1.2
293 K, x1 = 0.000185	998.269 ± 0.1	1484.9 ± 1.2
293 K, x1 = 0.000277	998.279 ± 0.1	1486 ± 1.2
293 K, x1 = 0.000377	998.297 ± 0.1	1487.2 ± 1.2
293 K, x1 = 0.000452	998.301 ± 0.1	1488.1 ± 1.2
293 K, x1 = 0.000546	998.325 ± 0.1	1489.2 ± 1.2
293 K, x1 = 0.000728	998.361 ± 0.1	1491.4 ± 1.2
293 K, x1 = 0.000836	998.402 ± 0.1	1492.8 ± 1.2
293 K, x1 = 0.001002	998.424 ± 0.1	1494.6 ± 1.2
293 K, x1 = 0.001099	998.408 ± 0.1	1495.4 ± 1.2
293 K, x1 = 0.00118	998.437 ± 0.1	1496.1 ± 1.2
293 K, x1 = 0.001259	998.436 ± 0.1	1496.5 ± 1.2
293 K, x1 = 0.001351	998.434 ± 0.1	1497.1 ± 1.2
293 K, x1 = 0.001452	998.423 ± 0.1	1497.6 ± 1.2
293 K, x1 = 0.001539	998.415 ± 0.1	1497.9 ± 1.2
293 K, x1 = 0.001631	998.403 ± 0.1	1498.3 ± 1.2
293 K, x1 = 0.001869	998.372 ± 0.1	1499 ± 1.2
293 K, x1 = 0.001988	998.354 ± 0.1	1499.4 ± 1.2
298 K, x1 = 0.000105	997.096 ± 0.1	1498 ± 1.2
298 K, x1 = 0.000185	997.108 ± 0.1	1498.9 ± 1.2
298 K, x1 = 0.000277	997.114 ± 0.1	1500 ± 1.2
298 K, x1 = 0.000377	997.124 ± 0.1	1501.1 ± 1.2
298 K, x1 = 0.000452	997.122 ± 0.1	1501.8 ± 1.2
298 K, x1 = 0.000546	997.141 ± 0.1	1502.8 ± 1.2
298 K, x1 = 0.000728	997.166 ± 0.1	1504.9 ± 1.2
298 K, x1 = 0.000836	997.199 ± 0.1	1506.1 ± 1.2
298 K, x1 = 0.001002	997.205 ± 0.1	1507.7 ± 1.2
298 K, x1 = 0.001099	997.182 ± 0.1	1508.4 ± 1.2
298 K, x1 = 0.00118	997.205 ± 0.1	1509 ± 1.2
298 K, x1 = 0.001259	997.199 ± 0.1	1509.4 ± 1.2
298 K, x1 = 0.001351	997.192 ± 0.1	1509.9 ± 1.2
298 K, x1 = 0.001452	997.175 ± 0.1	1510.3 ± 1.2
298 K, x1 = 0.001539	997.164 ± 0.1	1510.6 ± 1.2
298 K, x1 = 0.001631	997.146 ± 0.1	1510.9 ± 1.2
298 K, x1 = 0.001869	997.078 ± 0.1	1511.5 ± 1.2
298 K, x1 = 0.001988	997.079 ± 0.1	1511.8 ± 1.2
303 K, x1 = 0.000105	995.704 ± 0.1	1510.3 ± 1.2
303 K, x1 = 0.000185	995.706 ± 0.1	1511.1 ± 1.2
303 K, x1 = 0.000277	995.707 ± 0.1	1512.1 ± 1.2
303 K, x1 = 0.000377	995.711 ± 0.1	1513.1 ± 1.2
303 K, x1 = 0.000452	995.705 ± 0.1	1513.8 ± 1.2
303 K, x1 = 0.000546	995.718 ± 0.1	1514.7 ± 1.2
303 K, x1 = 0.000728	995.732 ± 0.1	1516.6 ± 1.2
303 K, x1 = 0.000836	995.759 ± 0.1	1517.7 ± 1.2
303 K, x1 = 0.001002	995.75 ± 0.1	1519.2 ± 1.2
303 K, x1 = 0.001099	995.72 ± 0.1	1519.7 ± 1.2
303 K, x1 = 0.00118	995.739 ± 0.1	1520.3 ± 1.2
303 K, x1 = 0.001259	995.728 ± 0.1	1520.6 ± 1.2
303 K, x1 = 0.001351	995.715 ± 0.1	1521 ± 1.2
303 K, x1 = 0.001452	995.694 ± 0.1	1521.5 ± 1.2
303 K, x1 = 0.001539	995.683 ± 0.1	1521.6 ± 1.2
303 K, x1 = 0.001631	995.659 ± 0.1	1521.9 ± 1.2
303 K, x1 = 0.001869	995.549 ± 0.1	1522.4 ± 1.2
303 K, x1 = 0.001988	995.574 ± 0.1	1522.6 ± 1.2
308 K, x1 = 0.000105	994.091 ± 0.1	1520.9 ± 1.2
308 K, x1 = 0.000185	994.084 ± 0.1	1521.6 ± 1.2
308 K, x1 = 0.000277	994.08 ± 0.1	1522.5 ± 1.2
308 K, x1 = 0.000377	994.079 ± 0.1	1523.4 ± 1.2
308 K, x1 = 0.000452	994.068 ± 0.1	1524.1 ± 1.2
308 K, x1 = 0.000546	994.074 ± 0.1	1524.9 ± 1.2
308 K, x1 = 0.000728	994.082 ± 0.1	1526.7 ± 1.2
308 K, x1 = 0.000836	994.1 ± 0.1	1527.7 ± 1.2
308 K, x1 = 0.001002	994.083 ± 0.1	1528.9 ± 1.2
308 K, x1 = 0.001099	994.044 ± 0.1	1529.4 ± 1.2
308 K, x1 = 0.00118	994.057 ± 0.1	1529.9 ± 1.2
308 K, x1 = 0.001259	994.044 ± 0.1	1530.2 ± 1.2
308 K, x1 = 0.001351	994.028 ± 0.1	1530.5 ± 1.2
308 K, x1 = 0.001452	994.006 ± 0.1	1531 ± 1.2
308 K, x1 = 0.001539	993.985 ± 0.1	1531.1 ± 1.2
308 K, x1 = 0.001631	993.962 ± 0.1	1531.3 ± 1.2
308 K, x1 = 0.001869	993.807 ± 0.1	1531.7 ± 1.2
308 K, x1 = 0.001988	993.859 ± 0.1	1531.9 ± 1.2
313 K, x1 = 0.000105	992.269 ± 0.1	1529.9 ± 1.2
313 K, x1 = 0.000185	992.257 ± 0.1	1530.5 ± 1.2
313 K, x1 = 0.000277	992.252 ± 0.11	1531.4 ± 1.2
313 K, x1 = 0.000377	992.242 ± 0.11	1532.2 ± 1.2
313 K, x1 = 0.000452	992.229 ± 0.11	1532.8 ± 1.2
313 K, x1 = 0.000546	992.227 ± 0.11	1533.5 ± 1.2
313 K, x1 = 0.000728	992.229 ± 0.11	1535.1 ± 1.2
313 K, x1 = 0.000836	992.239 ± 0.11	1536 ± 1.2
313 K, x1 = 0.001002	992.214 ± 0.11	1537.2 ± 1.2
313 K, x1 = 0.001099	992.17 ± 0.11	1537.6 ± 1.2
313 K, x1 = 0.00118	992.176 ± 0.11	1538 ± 1.2
313 K, x1 = 0.001259	992.167 ± 0.11	1538.3 ± 1.2
313 K, x1 = 0.001351	992.142 ± 0.11	1538.6 ± 1.2
313 K, x1 = 0.001452	992.118 ± 0.11	1539 ± 1.2
313 K, x1 = 0.001539	992.095 ± 0.11	1539 ± 1.2
313 K, x1 = 0.001631	992.066 ± 0.11	1539.2 ± 1.2
313 K, x1 = 0.001869	991.864 ± 0.11	1539.5 ± 1.2
313 K, x1 = 0.001988	991.947 ± 0.11	1539.7 ± 1.2

Reference: the NIST ThermoML archive (doi:10.1016/j.jct.2012.11.032)
